Values of other authors as cited in patent US6653469B1, “Antibiotic purification method” (Murty Pharmaceuticals, Inc., priority 2002, dated 2003).

Key:
[1] = not given; remark: listed apart in the source
[2] = tested on: heat shock protein 90 (Hsp90)

SMILES | solubility in acetone, benzene, and ethyl acetate (acetone, benzene, ethyl acetate) | solubility in alcohols and aliphatic chlorinated solvents such as chloroform (alcohols, chloroform) | solubility in water (water) | stability to acid, base, or heat ([1]; acid, base, or heat in the presence of oxygen) | photolytic stability ([1]; aqueous and nonaqueous solutions) | binding to Hsp90 and effect on Hsp90 function [2]
COC1=C2C[C@@H](C)C[C@H](OC)[C@H](O)[C@@H](C)/C=C(\C)[C@H](OC(N)=O)[C@@H](OC)/C=C\C=C(/C)C(=O)NC(=CC1=O)C2=O [geldanamycin] | less soluble | soluble | only slightly soluble | decompose easily | undergoes photolytic degradation | 
CO[C@H]1[C@@H](OC)C[C@H](C)[C@@H](OC)C2=CC(=O)C=C(NC(=O)/C(C)=C/C=C\[C@H](OC)[C@@H](OC(N)=O)/C(C)=C/[C@@H]1C)C2=O [herbimycin A] |  |  |  |  |  | bind specifically to Hsp90
COC1CC(C)C(OC)c2cc(O)cc(c2O)NC(=O)/C(C)=C\C=C/C(C)C(OC(N)=O)/C(C)=C\C(C)C1OC (stereo not shown) [macbecin II] |  |  |  |  |  | bind specifically to Hsp90
